One data set has as its system Human RPE cells. In words: Formation of lipofuscin (auto-fluorescence) in RPE cells with tyrosinase inhibited by PTU. The class given is cell-based. The method, then:
Human retinal pigment epithelium cells were isolated 2 hours post mortem from eyes of organ donors by incubation in 0.2% trypsin solution with 0.5 mM EDTA (if not indicated differently the reagents are from Sigma, Deisenhofen, Germany) for 30 minutes. The cells were centrifuged and cultivated in 24-well-plates (Nunc, Mainz, Germany) in Dulbeccos modified Eagle Medium with 15% foetal calf serum, 50 μg/ml gentamycin and 2.5 μg/ml amphotericin. The cells remain in primary culture (P0) for 3 weeks until confluence. Subsequent passaging was performed by trypsination of the cells in the respective time intervals. For the feeding with membranes of visual cells, cells originating from 3 different donors (passage 3, 6 and 16) were used. […]
The cells in group 1+2 were overlaid with about 2×10^6 outer segments of rods. […] After this, the cells were looked at under the fluorescence microscope (Axiovert, Zeiss, Oberkochem, Germany) with filters specific for the auto-fluorescence of the lipofuscein (excitation 360 nm, emission 540 nm, Feuerbacher Analysentechnik, Tübingen, Germany) and were photographed with a digital camera and saved using Openlab Software (Improvision, UK).

The next data set concerns mRNA for catalase. In words: Catalase mRNA expression in the chorioidea-RPE-complex after zinc injection (real time RT-PCR). The class given is in vivo, rat. As for the experimental part: After 6 and 24 hours the chorioidea-RPE-complex was isolated from the retina and sclera. The amount of catalase mRNA expression in the chorioidea-RPE-complex was quantified by real time RT-PCR with the SYBR Green I reaction system using an iCycler (Bio-Rad Laboratories, Hercules, Calif.). PCR primer (catalase: upper primer: TAGCCAGAAGAGAAACCCACAAACT (SEQ ID NO:1) and lower primer: TCCCTCGGTCGCTGAACAAGA (SEQ ID NO:2); GAPDH: upper primer: AACTTTGTGAAGCTCATTTCCTGGTAT (SEQ ID NO:3) and lower primer: CCT TGC TGG GCT GGG TGG T (SEQ ID NO:4)) were selected using the primer analysis software OLIGO®4.1 (National Biosciences, Plymoth, Minn., USA) that the primer specific melting temperature was between 58 and 60° C. […] The quantification data were calculated using the iCycler iQ System Software (Bio-Rad Laboratories, Hercules, Calif.). After subtraction of the PCR base line by the software, the linear logarithmic portion of the fluorescence was plotted versus the number of cycles to determine the cycle number (threshold cycle, CT) at which the threshold fluorescence for catalase and GAPDH as a reference was exceeded. Since the amplification effectivity of target and reference gene was approximately the same (delta CT<0.15) the comparative CT method was used for the quantification of the catalase in comparison GAPDH.

Data set [1] deals with human amelanotic retinal pigment epithelium cells ARPE-19. Kind of data set: Survival of retinal pigment epithelium cells after lethal UVA radiation. Conditions: without melanin. The class given is cell-based. As for the experimental part:
30.000 human amelanotic retinal pigment epithelium cells ARPE-19 (American Type culture Collections, Manassas, Va., USA) were cultivated in a mixture of DMEM and F12 Medium (PAA Laboratories, Linz, Austria) with 10% foetal calf serum, gentamycin and amphotericin and were incubated with 1 mg/ml melanin from squids (Sepia officinalis, Sigma). After 4 hours, the non-phagocytosed melanin was thoroughly washed away. After 24 hours the artificially pigmented cells were incubated with 100 or 200 μmol ZnCl2 for 2 hours. Three days later, the cells were irradiated using a HRL, 125 W, lamp (Radium, Germany) for 1 hour. The UVA light portion was 18 mW/cm^2 at the surface of the cell culture liquid and was measured using a RM-12 UV radiometer (Dr. Gröbel, UV Elektronik, Ettlingen, Germany). Cells without melanin and zinc treatment with and without irradiation served as controls. After 2 further days, the number of surviving cells was counted in a Thoma-chamber.
In the following table the mean values of surviving cells from 3 independent experiments are indicated. The number of surviving cells after irradiation without melanin and/or zinc treatment was statistically compared with the number of surviving cells with treatment. That is were the p-value results from. […] The number of surviving cells war increased by the factor 7.4 in comparison to untreated cells.

For data set [2] the following is noted: for zinc concentration of the chorioidea-RPE-complex: 24 hours after 40 mg/kg ZnCl2 intraperitoneally. The method, then: Two albino (Wistar) rats and two pigmented (Long Evans) rats were injected intraperitoneally with 40 mg/kg body weight ZnCl2. After 24 hours the chorioidea-RPE-complex was isolated from retina and sclera. Respective samples from untreated animals served as controls. The samples were weight directly into leak-proof PFA vessels (Savillex) (Microbalance Sartorius MC21S) and cracked by using ultrasound homogenisation for 24 hours at 30° C. with HNO3—H2O2 (suprapur grade reagents; Merck). After careful evaporation, the remains were solved in 2% HNO3 for 5 hours at 50° C. This solution was subsequently transferred to a 10 ml volumetric flask. The final clear solution contained 10 ng rhodamin (Rh)/ml and was refilled with 2% HNO3. The detection of zinc was performed by inductively coupled plasma mass spectrometry (ICP-MS, ELAN 6000 Perkin-Elmer/Sciex) and by using Rh as internal standard and a calibration with chemical reagents having the highest purity grade.

Read-outs that look alike come from different tables or passages of the source.

For `NC(=S)Nc1ccccc1` [PTU, phenylthiourea], the “auto-fluorescence specific for lipofuscin” value in the data set with Human RPE cells (group 1: 1 mM PTU, fed with membranes of visual cells on 15 successive days) was “intensive, golden auto-fluorescence specific for lipofuscin”; in the data set with Human RPE cells (group 3: 1 mM PTU, not fed), “no auto-fluorescence”.

Regarding `[Cl-].[Cl-].[Zn+2]` [zinc, ZnCl2], the “amount of mRNA for catalase” value in the data set with mRNA for catalase (24 hours after 40 mg/kg ZnCl2 i.p.) is listed as “again as high as without zinc injection”. For the same compound, the “increase of mRNA for catalase (factor)” value in the data set on mRNA for catalase (six hours after 40 mg/kg ZnCl2 i.p., albino and pigmented rats compared) is reported as 12. Further, the “number of surviving cells” value in data set [1] (with irradiation (UVA 18 mW/cm^2, 1 hour), 100 μmol Zn) was 33333 ± 11547; in data set [1] (with irradiation, 200 μmol Zn), 41666 ± 16072. In addition, in data set [2] (after injection of zinc, 24 hours), the “final zinc concentration in pigmented rats relative to treated albinos (times higher)” value worked out at 19. In addition, the “zinc concentration of the chorioidea-RPE-complex” value is 6.5 µg/g in data set [2] (albino (Wistar) rats) and 125 µg/g in data set [2] (pigmented (Long Evans) rats). In addition, the “increase of zinc concentration (factor) versus untreated” value in data set [2] (pigmented rats, 24 hours after injection of zinc) worked out at 1.6.

Source of the values: patent US7488749B2, “Therapy of diseases of the eye, the inner ear and the central nervous system” (Cevec Pharmaceuticals GmbH, priority 2002, dated 2009).
